A short description of data set [1]: Toxicity in BALB/c mouse assessed as histological change in tumor at 50 mg/kg, sc administrated every other day for 13 days by H and E staining based light microscopic analysis. The format is organism-based. The settings on record: in vivo, 312 h, time 13 day.
Data set [2] is described as follows: Toxicity in BALB/c mouse assessed as histological change in heart at 50 mg/kg, sc administrated every other day for 13 days by H and E staining based light microscopic analysis. The settings on record: in vivo, 312 h, time 13 day. Format: organism-based.
For data set [3], the system named is NCI-H929. As to the kind of experiment: Induction of DNA damage in human NCI-H929 cells assessed as increase gamma-H2AX level at 10 to 20 uM incubated for 24 hrs by Western blot analysis. Format: functional, cell-based. The settings on record: dose 10-20 µM.
Data set [4] can be described thus: Toxicity in BALB/c mouse assessed as histological change in kidney at 50 mg/kg, sc administrated every other day for 13 days by H and E staining based light microscopic analysis. The settings on record: in vivo, 312 h, time 13 day. The format is organism-based.
Data set [5] in a line: Toxicity in BALB/c mouse assessed as histological change in liver at 50 mg/kg, sc administrated every other day for 13 days by H and E staining based light microscopic analysis. The format is organism-based. The settings on record: in vivo, 312 h, time 13 day.
Data set [6] relates to NCI-H929. Nature of the data set: Anti-proliferative activity against human NCI-H929 cells assessed as inhibition cell growth at 5 uM incubated for 72 hrs by CCK-8 assay. The format is functional, cell-based.
Data set [7] in a line: Anti-proliferative activity against human ARP-1cells assessed as cell growth inhibition incubated for 72 hrs by CCK-8 assay. The note with it: ARP-1, 72 h.
In data set [8] the test system is NCI-H929. As to the kind of experiment: Antitumor activity against human NCI-H929 cells xenografted in BALB/C nude mouse model assessed as reduction in tumor growth at 50 mg/kg, sc administrated every other day for 13 days. Format: functional, organism-based. The settings on record: time 13.0 day.
The nature of data set [9]: Toxicity in BALB/c mouse xenografted with human NCI-H929 cells assessed as effect on body weight at 50 mg/kg, sc administrated every other day for 13 days. Format: organism-based. The settings on record: in vivo, 312 h, time 13 day.
Data set [10] can be described thus: Toxicity in BALB/c nude mouse xenografted with human NCI-H929 cells assessed as side effect at 50 mg/kg, sc administrated every other day for 13 days by H and E staining based light microscopic analysis. Format: organism-based. The note with it: in vivo, 312 h, time 13 day.
The test system of data set [11] is NCI-H929. As to the kind of experiment: Antitumor activity against human NCI-H929 cells xenografted in BALB/c nude mouse assessed as Ki-67 activity in tumor by microscopy based analysis. The format is functional, cell-based.
For data set [12], the system named is ARP-1. Nature of the data set: Anti-proliferative activity against human ARP-1 cells assessed as inhibition cell growth at 5 uM incubated for 72 hrs by CCK-8 assay. The format is functional, cell-based.
Data set [13] in a line: Toxicity in BALB/c nude mouse xenografted with human NCI-H929 cells assessed as drug tolerance at 50 mg/kg, sc administrated every other day for 13 days by H and E staining based light microscopic analysis. The note with it: in vivo, 312 h, time 13 day. The format is organism-based.
The test system of data set [14] is NCI-H929. As to the kind of experiment: Anti-proliferative activity against human NCI-H929 cells assessed as cell growth inhibition incubated for 72 hrs by CCK-8 assay. The settings on record: NCI-H929, 72 h.
For data set [15], the system named is NCI-H929. Nature of the data set: Anti-proliferative activity against human NCI-H929 cells assessed as inhibition cell growth incubated for 72 hrs by CCK-8 assay. Format: functional, cell-based.
The subject of data set [16] is ARP-1. Nature of the data set: Anti-proliferative activity against human ARP-1 cells assessed as inhibition cell growth incubated for 72 hrs by CCK-8 assay. The format is functional, cell-based.

Active and inactive are the calls of the source. The rule behind the calls is not given here.

Consider `COc1ccc(SC2CC(=O)[C@H](NC(=O)c3ccc4c(c3)OCO4)O[C@@H]2COC(C)=O)cc1OC` (stereo partly specified), for which the Activity result in [1], in [2], in data set [4], in [5], in data set [9] and in data set [10] was “Non-Toxic” in each case. Moreover, in data set [13], the Activity entry is reported as “Non-Toxic”. Further, the result in the data set on NCI-H929 [3], with NCI-H929 [6], in the data set with NCI-H929 [8], with NCI-H929 [11] and in the data set with ARP-1 [12] was Active. The IC50 stood at 2.07 µM in [7] and 1.24 µM in the data set with NCI-H929 [14].
As to `O=C1C2C3C=CC(C4CC34)C2C(=O)N1c1ccc(Cc2ccncc2)cc1` (stereo unspecified), the outcome in the data set with NCI-H929 [6] and with NCI-H929 [8] was Active. Also, the values for the IC50 (in data set [7]; in the data set on NCI-H929 [14]) were 5.45 µM and 6.88 µM, respectively. For the same molecule, the Activity result in data set [9] is “Non-Toxic”.
Regarding `COc1ccc(SC2CC(O)[C@H](NC(=O)c3ccc4c(c3)OCO4)O[C@@H]2CO)cc1` (stereo partly specified), the result with NCI-H929 [15] and in the data set on ARP-1 [16] was Active.
